Assay results from ChEMBL document CHEMBL5226321, “Ivermectin: A Promising Therapeutic for Fighting Malaria. Current Status and Perspective” (J Med Chem, 2021).
Values joined by “and” are separate entries in the source; they are usually repeats but may differ in a detail not shown here. Equal values may be shown once.

Tests used:
Culex pipiens = test: Insecticidal in Culex pipiens larvae measured after 48 hrs; format: functional
Anopheles stephensi [1] = test: Insecticidal in Anopheles stephensi larvae measured after 48 hrs; format: functional
Anopheles sp. [2] = test: Insecticidal in Anopheles sp. assessed as mortality rate fed with blood of compound treated dog at 10 to 2500 microg/kg observed after 48 hrs relative to control; format: functional, organism-based; conditions: dose 10-2500 µg/kg
Anopheles sp. [3] = test: Insecticidal in Anopheles sp. assessed as lethal concentration membrane-fed with compound treated blood; format: functional, organism-based
Aedes albopictus = test: Insecticidal in Aedes albopictus assessed as mortality rate membrane-fed with compound treated human blood at 10 to 100 microg/mL observed within 7 days relative to control; format: functional, organism-based; conditions: dose 10-100 µg/ml, time 7.0 day
Anopheles sp. [4] = test: Insecticidal in Anopheles sp. assessed as percentage survival fed with blood of compound treated human at 250 microg/kg administered once and observed for 3 days relative to control; format: functional, organism-based; conditions: dose 250.0 µg/kg, time 3.0 day
Anopheles gambiae [5] = test: Insecticidal in Anopheles gambiae assessed as mean survival fed with blood of compound treated human at 200 microg/kg relative to control; format: functional, organism-based; conditions: dose 200.0 µg/kg
Anopheles sp. [6] = test: Insecticidal in Anopheles sp. assessed as mortality rate fed with blood of compound treated human at 200 microg/kg administered once caught on day 1 after mass drug administration observed within 5 days relative to control; format: functional, organism-based; conditions: dose 200.0 µg/kg, time 5.0 day
Anopheles sp. [7] = test: Insecticidal in Anopheles sp. assessed as mortality rate fed with blood of compound treated human at 200 microg/kg administered once caught on day 2 after mass drug administration observed within 5 days relative to control; format: functional, organism-based; conditions: dose 200.0 µg/kg, time 5.0 day
Anopheles stephensi [8] = test: Insecticidal in Anopheles stephensi assessed as lethal concentration membrane-fed with compound treated blood observed after 4 days; format: functional, organism-based; conditions: time 4.0 day
Anopheles stephensi [9] = test: Insecticidal in Anopheles stephensi assessed as mortality rate membrane-fed with blood of compound treated mouse at 600 microg/kg observed within 6 days relative to control; format: functional, organism-based; conditions: dose 600.0 µg/kg, time 6.0 day
Plasmodium vivax [10] = test: Antimalarial activity against Plasmodium vivax assessed as reduction in infection in Anopheles sp. mosquito midgut fed with blood isolated from compound treated parasite-infected human at 40 ng/ml observed after 7 days relative to control; format: functional, organism-based; conditions: time 7.0 day
Anopheles sp. [11] = test: Insecticidal in Anopheles sp. infected with Plasmodium vivax assessed as percentage of survival midgut fed with blood isolated from compound treated parasite-infected human at 40 ng/ml observed after 7 days relative to control; format: functional, organism-based; conditions: time 7.0 day
Plasmodium vivax [12] = test: Antimalarial activity against Plasmodium vivax assessed as reduction in […] in Anopheles sp. mosquito fed with blood containing plasma isolated from compound treated human observed after 4 days relative to control; format: functional, organism-based; conditions: time 4.0 day, dose or concentration not given here
Anopheles sp. [13] = test: Insecticidal in Anopheles sp. infected with Plasmodium vivax assessed as mortality rate midgut fed with blood isolated from compound treated parasite-infected human observed after 7 days relative to control; format: functional, organism-based; conditions: time 7.0 day
Anopheles darlingi = test: Insecticidal in Anopheles darlingi infected with Plasmodium vivax assessed as mortality rate midgut fed with blood isolated from compound treated parasite-infected human observed after 7 days relative to control; format: functional, organism-based; conditions: time 7.0 day
Anopheles sp. [14] = test: Insecticidal in Anopheles sp. infected with Plasmodium vivax assessed as lethality fed with blood isolated from compound treated human observed for 5 days; format: functional, organism-based; conditions: time 5.0 day
Anopheles sp. [15] = test: Insecticidal in Anopheles sp. infected with Plasmodium vivax assessed as mortality rate fed with blood isolated from compound treated human at 200 microg/kg observed for 5 days; format: functional, organism-based; conditions: dose 200.0 µg/kg, time 5.0 day
Anopheles stephensi [16] = test: Insecticidal in Anopheles stephensi assessed as mortality rate with blood of compound treated mouse at 82 microg/kg observed within 36 hrs relative to control; format: functional, organism-based; conditions: dose 82.0 µg/kg
Anopheles gambiae [17] = test: Insecticidal in Anopheles gambiae assessed as probability of survival per day fed with blood of compound treated human at 150 microg/kg observed for 6 days relative to control; format: functional, organism-based; conditions: dose 150.0 µg/kg, time 6.0 day
Anopheles sp. [18] = test: Insecticidal in Anopheles sp. assessed as mortality rate fed with blood of compound treated human at 250 microg/kg administered once and observed for 3 days relative to control; format: functional, organism-based; conditions: dose 250.0 µg/kg, time 3.0 day
Anopheles sp. [19] = test: Insecticidal in Anopheles sp. assessed as mortality rate fed with compound treated human blood at 400 microg/kg observed in 48 hrs relative to control; format: functional, organism-based; conditions: dose 400.0 µg/kg
Anopheles sp. [20] = test: Insecticidal in Anopheles sp. assessed as mortality rate fed with blood of compound treated human at 200 microg/kg administered once caught on day 3 after mass drug administration observed within 5 days relative to control; format: functional, organism-based; conditions: dose 200.0 µg/kg, time 5.0 day
Anopheles sp. [21] = test: In vitro Insecticidal in Anopheles sp. assessed as lethality membrane-fed with compound treated human blood at 400 microg/kg per day in presence of combination of 120 mg dihydroartemisinin, 960 mg piperaquine and 30 mg primaquine observed after 7 days; format: functional, organism-based; conditions: dose 400.0 µg/kg, time 7.0 day
Anopheles minimus = test: Insecticidal in Anopheles minimus assessed as lethal concentration membrane-fed with compound treated human blood at 200 microg/kg observed for 7 days; format: functional, organism-based; conditions: dose 200.0 µg/kg, time 7.0 day
Anopheles arabiensis [22] = test: Insecticidal in Anopheles arabiensis assessed as mean survival fed with blood of compound treated human at 12 mg, administered as a single dose observed at 2 days post treatment; format: functional, organism-based; conditions: time 2.0 day
Anopheles sp. [23] = test: Insecticidal in Anopheles sp. infected with Plasmodium falciparum gametocytes assessed as mortality fed with compound treated bovine blood at 200 microg/kg observed within 5.5 days feeding at 15 days post treatment relative to control; format: functional, organism-based; conditions: dose 200.0 µg/kg, time 5.5 day
Anopheles sp. [24] = test: Insecticidal in Anopheles sp. assessed as mortality fed with treated bovine blood containing 1% of compound observed within 4 days after a blood meal on 2 days post treatment relative to control; format: functional, organism-based; conditions: time 4.0 day
Anopheles sp. [25] = test: Insecticidal in Anopheles sp. assessed as mortality fed with treated bovine blood containing 1% of compound observed within 4 days after a blood meal on 7 days post treatment relative to control; format: functional, organism-based; conditions: time 4.0 day
Anopheles sp. [26] = test: Insecticidal in Anopheles sp. infected with Plasmodium falciparum gametocytes assessed as reduction in survival fed with compound treated bovine blood at 200 microg/kg feeding at 7 days after injection relative to control; format: functional, organism-based; conditions: dose 200.0 µg/kg
Anopheles sp. [27] = test: Insecticidal in Anopheles sp. infected with Plasmodium falciparum gametocytes assessed as reduction in survival fed with compound treated bovine blood at 200 microg/kg feeding at 15 days after injection relative to control; format: functional, organism-based; conditions: dose 200.0 µg/kg
Anopheles sp. [28] = test: Insecticidal in Anopheles sp. assessed as lethal concentration membrane-fed with compound treated pig blood; format: functional
Anopheles sp. [29] = test: Insecticidal in Anopheles sp. assessed as number of eggs per female fed with compound treated human blood administered as a single dose at 10 microg/ml fed at 4 hrs post treatment; format: functional, organism-based; conditions: dose 10.0 µg/ml
Anopheles sp. [30] = test: Insecticidal in Anopheles sp. assessed as mortality relative to control; format: functional, organism-based
Anopheles gambiae [31] = test: Insecticidal in Anopheles gambiae assessed as lethal concentration membrane-fed with compound treated human blood at 200 microg/kg observed after 48 to 72 hrs; format: functional, organism-based; conditions: dose 200.0 µg/kg, time 48-72 hrs
Anopheles gambiae [32] = test: Insecticidal in Anopheles gambiae assessed as mortality fed with compound treated pig plasma at 20 ng/mL observed for 10 days relative to control; format: functional, organism-based; conditions: time 10.0 day
Anopheles gambiae [33] = test: Insecticidal in Anopheles gambiae assessed as mortality fed with compound treated bovine blood at 6 ng/mL observed for 10 days relative to control; format: functional, organism-based; conditions: time 10.0 day
Anopheles arabiensis [34] = test: Insecticidal in Anopheles arabiensis assessed as reduction in survival rate fed with blood of compound treated human observed for […] relative to control; format: functional, organism-based

In the case of IVERMECTIN, the LC50 (Culex pipiens) is reported as 3.94 ppb, the LC50 (Anopheles stephensi [1]) is reported as 5.85 ppb and the mortality (Anopheles sp. [2]) is reported as 90%. The MLC (Anopheles sp. [3]) was 50 ppm, the mortality (Aedes albopictus) was 100% and the Survival (Anopheles sp. [4]) was 20%. It also gave a Survival (Anopheles gambiae [5]) of 2.3 days, a mortality (Anopheles sp. [6]) of 75% and a mortality (Anopheles sp. [7]) of 80%. The LC50 (Anopheles stephensi [8]) was 0.007 µg/mL, the mortality (Anopheles stephensi [9]) was 85% and the inhibition (Plasmodium vivax [10]) was 61.3%. It also gave a Survival (Anopheles sp. [11]) of 22%, an inhibition (Plasmodium vivax [12]) of 99.9% and a mortality (Anopheles sp. [13]) of 97.1%. It also gave a mortality (Anopheles darlingi) of 97.1%, an LC5 (Anopheles sp. [14]) of 18.3 ng/mL and a mortality (Anopheles sp. [15]) of 50%. For the same sequence, the mortality (Anopheles stephensi [16]) was 100%, the Survival (Anopheles gambiae [17]) was greater than 10% and the mortality (Anopheles sp. [18]) was 80%. It also gave a mortality (Anopheles sp. [19]) of 69%, a mortality (Anopheles sp. [20]) of 68% and an LC50 (Anopheles sp. [21]) of 0.0576 µg/mL. For the same sequence, the LC50 (Anopheles minimus) was 0.0264 µg/mL, the Survival (Anopheles arabiensis [22]) was 2.1 days and the mortality (Anopheles sp. [23]) was 100%. The mortality (Anopheles sp. [24]) was 60%, the mortality (Anopheles sp. [25]) was 80% and the Survival (Anopheles sp. [26]) was 83%. For the same sequence, the Survival (Anopheles sp. [27]) was 77%, the LC50 (Anopheles sp. [28]) was 0.0178 µg/mL and the Activity (Anopheles sp. [29]) was 22.4. The mortality (Anopheles sp. [30]) was 90%, the LC50 (Anopheles gambiae [31]) was 0.01 µg/mL and 0.007 µg/mL and the mortality (Anopheles gambiae [32]) was 50%. For the same sequence, the mortality (Anopheles gambiae [33]) was 50% and the Survival (Anopheles arabiensis [34]) was 50%.
